Source: ChEMBL document CHEMBL1165984, “Antiviral and anti-inflammatory diterpenoids from the soft coral Sinularia gyrosa” (J Nat Prod, 2010)
Calls of active or inactive are those of the source. The rule behind the calls is not given here.

What was measured:
A549 = experiment: Cytotoxicity against human A549 cells by MTT assay; type: functional, cell-based
Shigella sonnei = experiment: Antimicrobial activity against Shigella sonnei ATCC 11060 at 100 ug/disk; type: functional, organism-based
P388 = experiment: Cytotoxicity against mouse P388 cells by MTT assay; type: functional, cell-based
Serratia marcescens = experiment: Antimicrobial activity against Serratia marcescens ATCC 25419 at 100 ug/disk; type: functional, organism-based
RAW264.7 = experiment: Antiinflammatory activity in mouse RAW264.7 cells assessed as iNOS protein expression level at 10 uM; type: functional
Klebsiella aerogenes = experiment: Antimicrobial activity against Enterobacter aerogenes ATCC 13048 at 100 ug/disk; type: functional, organism-based
Salmonella enteritidis = experiment: Antimicrobial activity against Salmonella enteritidis ATCC 13076 at 100 ug/disk; type: functional, organism-based; conditions: Salmonella enterica subsp. enterica serovar Enteritidis
Yersinia enterocolitica = experiment: Antimicrobial activity against Yersinia enterocolitica ATCC 23715 at 100 ug/disk; type: functional, organism-based
Human betaherpesvirus 5 = experiment: Antiviral activity against HCMV infected in HEL cells assessed as reduction of virus plaque formation; type: functional, organism-based; conditions: Human betaherpesvirus 5, HEL

Compound | inhibition (A549) | inhibition (Shigella sonnei) | inhibition (P388) | inhibition (Serratia marcescens) | Activity (RAW264.7) [%] | inhibition (Klebsiella aerogenes) | inhibition (Salmonella enteritidis) | inhibition (Yersinia enterocolitica) | IC50 (Human betaherpesvirus 5) [nM]
C=C(CCC=C(C)C)[C@H]1CC[C@@]2(C)[C@H](C1)C(C)=CC[C@@H]2O [GYROSANOL A] | inactive | inactive | inactive | inactive | 118.5 | inactive | inactive | inactive | 2600
C=C(CCC=C(C)C)[C@@H]1CC/C(C)=C/CCC(=C)[C@@H](O)C1 | inactive | inactive | inactive | inactive |  | inactive | inactive | inactive | 
